target: T1, rhJAK3 (Homo sapiens, UniProt P52333); experiment: JAK Biochemical HTRF Assay (JAK3); conditions: recombinant purified GST-tagged catalytic domain, HTRF format, [ATP] 1.7 μM; read-out: rhJAK3 IC50
T1 construct: recombinant purified GST-tagged catalytic domain for each enzyme; purchased Invitrogen PV3855
Method: JAK Biochemical HTRF Assay Protocol
The ability of compounds to inhibit the activity of JAK1, JAK2, JAK3, and TYK2 was measured using a recombinant purified GST-tagged catalytic domain for each enzyme (Invitrogen JAK1 #PV4774, JAK2 #PV4210, JAK3 #PV3855, TYK2 #PV4790) in an HTRF format biochemical assay. The reactions employed a common peptide substrate, LCB-EQEDEPEGDYFEWLW-NH2. The basic assay protocol is as follows: First, […] of diluted compounds in DMSO were dispensed into the wells of a dry 384-well Black plate (Greiner #781076) using a Labcyte Echo 555 acoustic dispenser. Subsequent reagent additions employed a Thermo Multidrop Combi nL. Next, 10 μL of 2× enzyme and 2× substrate in 1× assay buffer (Invitrogen kinase buffer #PV3189, 2 mM DTT, 0.05% BSA) were added to the wells and preincubated for 30 min at room temperature to allow compound binding to equilibrate. After equilibration, 10 μl, of 2×ATP in 1× assay buffer was added to initiate the kinase reaction and the plates were incubated at room temperature for 120 min. At the end of the incubation, 20 μL of 2× stop buffer containing streptavidin-Dylight (Thermo #21845) and Eu-tagged pY20 antibody (Perkin Elmer #AD0067) was added to quench the reaction. Plates were further incubated 60 min at room temperature with shaking and then read on a Perkin Elmer Envision (λex=337 nm, λem=665 and 615 nm, TRF delay time=20 μs). HTRF signal=10,000*665 nm reading/615 nm reading. After normalization to untreated controls, the percent inhibition of the HTRF signal at each compound concentration was calculated. The plot of percent inhibition vs. the log of compound concentration was fit with a 4-parameter dose response equation to calculate IC50 values.

T1 sequence (P52333 822-1111 limits assumed): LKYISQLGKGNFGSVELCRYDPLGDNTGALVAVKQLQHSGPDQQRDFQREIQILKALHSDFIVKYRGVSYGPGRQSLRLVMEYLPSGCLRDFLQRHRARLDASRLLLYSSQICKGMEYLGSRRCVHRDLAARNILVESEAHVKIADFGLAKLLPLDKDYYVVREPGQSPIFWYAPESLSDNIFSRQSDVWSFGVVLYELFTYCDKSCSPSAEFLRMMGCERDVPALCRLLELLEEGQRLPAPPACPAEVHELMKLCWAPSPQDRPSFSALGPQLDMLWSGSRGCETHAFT

Structure (SMILES)	IC50
C[C@@H](Nc1cncc(-c2c[nH]c3ncc(Cl)cc23)n1)C(=O)N1CCC(F)(F)CC1 [Example 2-12, 6-(5-chloro-1H-pyrrolo[2,3-b]-pyridin-3-yl)-N-[(1R)-2-(4,4-difluoropiperidin-1-yl)-1-methyl-2-oxoethyl]pyrazin-2-amine]	100 to 1000 nM
C[C@@H](Nc1cncc(-c2c[nH]c3ncc(Cl)cc23)n1)C(=O)NC1CCCCNC1=O (stereo partly drawn) [Example 2-13, N^2-[6-(5-chloro-1H-pyrrolo[2,3-b]-pyridin-3-yl)pyrazin-2-yl]-N-(2-oxoazepan-3-yl)-D-alaninamide]	100 to 1000 nM
C[C@@H](Nc1cncc(-c2c[nH]c3ncc(Cl)cc23)n1)C(=O)NCc1ccc(N)cc1 [Example 2-14, N-(4-aminobenzyl)-N^2-[6-(5-chloro-1H-pyrrolo[2,3-b]pyridin-3-yl)pyrazin-2-yl]-D-alaninamide]	100 to 1000 nM
C[C@@H](Nc1cncc(-c2c[nH]c3ncc(Cl)cc23)n1)C(=O)NCCc1cccs1 [Example 2-15, N^2-[6-(5-chloro-1H-pyrrolo[2,3-b]-pyridin-3-yl)pyrazin-2-yl]-N-(2-thiophen-2-ylethyl)-D-alaninamide]	100 to 1000 nM
C[C@@H](Nc1cncc(-c2c[nH]c3ncc(Cl)cc23)n1)C(=O)NCC(=O)NC1CCCC1 [Example 2-16, N-[6-(5-chloro-1H-pyrrolo[2,3-b]-pyridin-3-yl)pyrazin-2-yl]-D-alanyl-N-cyclopentylglycinamide]	100 to 1000 nM
C[C@@H](Nc1cncc(-c2c[nH]c3ncc(Cl)cc23)n1)C(=O)N[C@H](CO)Cc1ccc(O)cc1 [Example 2-18, N^2-[6-(5-chloro-1H-pyrrolo[2,3-b]-pyridin-3-yl)pyrazin-2-yl]-N-[(1S)-2-hydroxy-1-(4-hydroxybenzyl)-ethyl]-D-alaninamide]	100 to 1000 nM
C[C@@H](Nc1cncc(-c2c[nH]c3ncc(Cl)cc23)n1)C(=O)N1CCN(CC(F)(F)F)CC1 [Example 2-19, 6-(5-chloro-1H-pyrrolo[2,3-b]-pyridin-3-yl)-N-{(1R)-1-methyl-2-oxo-2-[4-(2,2,2-trifluoroethyl)-piperazin-1-yl]ethyl}pyrazin-2-amine]	100 to 1000 nM
C[C@@H](Nc1cncc(-c2c[nH]c3ncc(Cl)cc23)n1)C(=O)NCCCN1CCS(=O)(=O)CC1 [Example 2-20, N^2-[6-(5-chloro-1H-pyrrolo[2,3-b]-pyridin-3-yl)pyrazin-2-yl]-N-[3-(1,1-dioxidothiomorpholin-4-yl)-propyl]-D-alaninamide]	100 to 1000 nM
C[C@@H](Nc1cncc(-c2c[nH]c3ncc(Cl)cc23)n1)C(=O)NCc1ccc(C(F)(F)F)cc1 [Example 2-21, N^2-[6-(5-chloro-1H-pyrrolo[2,3-b]-pyridin-3-yl)pyrazin-2-yl]-N-[4-(trifluoromethyl)benzyl]-D-alaninamide]	100 to 1000 nM
CC(C)CNC(=O)[C@H](C)Nc1cncc(-c2c[nH]c3ncc(Cl)cc23)n1 [Example 2-23, N^2-[6-(5-chloro-1H-pyrrolo[2,3-b]-pyridin-3-yl)pyrazin-2-yl]-N-(2-methylpropyl)-L-alaninamide]	10 to 100 nM
C[C@H](Nc1cncc(-c2c[nH]c3ncc(Cl)cc23)n1)C(=O)NCC(C)(C)C [Example 2-24, N^2-[6-(5-chloro-1H-pyrrolo[2,3-b]-pyridin-3-yl)pyrazin-2-yl]-N-(2,2-dimethylpropyl)-L-alaninamide]	100 to 1000 nM
O=C(NCCC(F)(F)F)C1(Nc2cncc(-c3c[nH]c4ncc(Cl)cc34)n2)CCCC1 [Example 2-26, 1-{[6-(5-chloro-1H-pyrrolo[2,3-b]pyridin-3-yl)pyrazin-2-yl]amino}-N-(3,3,3-trifluoropropyl)cyclopentanecarboxamide]	100 to 1000 nM
CC(C)(C)C(=O)N1CCN(c2cncc(-c3c[nH]c4ncc(Cl)cc34)n2)[C@@H](C(=O)NCC(F)(F)F)C1 [Example 4-3, (2R)-1-[6-(5-chloro-1H-pyrrolo[2,3-b]-pyridin-3-yl)pyrazin-2-yl]-4-(2,2-dimethylpropanoyl)-N-(2,2,2-trifluoro-ethyl)piperazine-2-carboxamide]	10 to 100 nM
O=C(Cn1ccc2ncc(-c3c[nH]c4ncc(Cl)cc34)nc21)NCC(F)(F)F [Example 5, 2-[3-(5-Chloro-1H-pyrrolo[2,3-b]pyridin-3-yl)-5H-pyrrolo[2,3-b]pyrazin-5-yl]-N-(2,2,2-trifluoroethyl)acetamide]	10 to 100 nM
O=C(NCCC(F)(F)F)C1(Oc2cncc(-c3c[nH]c4ncc(Cl)cc34)n2)CC1 [Example 6-3, 1-{[6-(5-chloro-1H-pyrrolo[2,3-b]pyridin-3-yl)pyrazin-2-yl]oxy}-N-(3,3,3-trifluoro-propyl)cyclopropanecarboxamide]	100 to 1000 nM
O=C(NCC(F)(F)F)c1cncc(-c2c[nH]c3ncc(Cl)cc23)n1 [Example 7, 6-(5-chloro-1H-pyrrolo[2,3-b]pyridin-3-yl)-N-(2,2,2-trifluoroethyl)pyrazine-2-carboxamide]	100 to 1000 nM
O=C(NCC(F)(F)F)[C@H]1CNCCN1C(=O)c1cncc(-c2c[nH]c3ncc(Cl)cc23)n1 [Example 7-1, (2R)-1-{[6-(5-chloro-1H-pyrrolo[2,3-b]pyridin-3-yl)-pyrazin-2-yl]carbonyl}-N-(2,2,2-trifluoroethyl)piperazine-2-carboxamide]	100 to 1000 nM
O=C(Cc1cncc(-c2c[nH]c3ncc(Cl)cc23)n1)NCC(F)(F)F [Example 8, 2-[6-(5-chloro-1H-pyrrolo[2,3-b]pyridin-3-yl)pyrazin-2-yl]-N-(2,2,2-trifluoroethyl)acetamide]	10 to 100 nM
O=C(Cc1cncc(-c2c[nH]c3ncc(Cl)cc23)n1)N1CCOCC1 [Example 8-1, 5-chloro-3-[6-(2-morpholin-4-yl-2-oxoethyl)pyrazin-2-yl]-1H-pyrrolo-[2,3-b]pyridine]	100 to 1000 nM
N#CCCNC(=O)Cc1cncc(-c2c[nH]c3ncc(Cl)cc23)n1 [Example 8-2, 2-[6-(5-chloro-1H-pyrrolo[2,3-b]-pyridin-3-yl)pyrazin-2-yl]-N-(2-cyanoethyl) acetamide]	100 to 1000 nM

The remaining lines, values ahead:

IC50	Structure (SMILES)
10 to 100 nM	C[C@@H](Nc1cncc(-c2c[nH]c3ncc(Cl)cc23)n1)C(=O)NC1CCC1 [Example 2-17, N^2-[6-(5-chloro-1H-pyrrolo[2,3-b]-pyridin-3-yl)pyrazin-2-yl]-N-cyclo-butyl-D-alaninamide]
10 to 100 nM	C[C@H](Nc1cncc(-c2c[nH]c3ncc(Cl)cc23)n1)C(=O)NCCC(F)(F)F [Example 2-22, N^2-[6-(5-chloro-1H-pyrrolo[2,3-b]-pyridin-3-yl)pyrazin-2-yl]-N-(3,3,3-trifluoropropyl)-L-alaninamide]
≤ 1 nM	O=C(NCC(F)(F)F)C1(Nc2cncc(-c3c[nH]c4ncc(Cl)cc34)n2)CCCC1 [Example 2-25, 1-{[6-(5-chloro-1H-pyrrolo[2,3-b]pyridin-3-yl)pyrazin-2-yl]amino}-N-(2,2,2-trifluoroethyl)cyclopentanecarboxamide]
1 to 10 nM	O=C(NCC(F)(F)F)[C@@H]1[C@@H](O)CN1c1cncc(-c2c[nH]c3ncc(Cl)cc23)n1 [Example 3, (2S,3S)-1-[6-(5-Chloro-1H-pyrrolo[2,3-b]pyridin-3-yl)pyrazin-2-yl]-3-hydroxy-N-(2,2,2-trifluoroethyl)azetidine-2-carboxamide]
1 to 10 nM	CS(=O)(=O)N1CCN(c2cncc(-c3c[nH]c4ncc(Cl)cc34)n2)[C@@H](C(=O)NCC(F)(F)F)C1 [Example 4, (2R)-1-[6-(5-Chloro-1H-pyrrolo[2,3-b]pyridin-3-yl)pyrazin-2-yl]-4-methylsulfonyl-N-(2,2,2-trifluoroethyl)piperazine-2-carboxamide]
1 to 10 nM	CC(=O)N1CCN(c2cncc(-c3c[nH]c4ncc(Cl)cc34)n2)[C@@H](C(=O)NCC(F)(F)F)C1 [Example 4-2, (2R)-4-acetyl-1-[6-(5-chloro-1H-pyrrolo-[2,3-b]pyridin-3-yl)pyrazin-2-yl]-N-(2,2,2-trifluoroethyl)piperazine-2-carboxamide]
1 to 10 nM	O=C(NCC(F)(F)F)C1(Oc2cncc(-c3c[nH]c4ncc(Cl)cc34)n2)CC1 [Example 6, 1-{[6-(5-Chloro-1H-pyrrolo[2,3-b]pyridin-3-yl)pyrazin-2-yl]oxy}-N-(2,2,2-trifluoroethyl)-cyclopropanecarboxamide]
1 to 10 nM	NC(=O)C1(Oc2cncc(-c3c[nH]c4ncc(Cl)cc34)n2)CC1 [Example 6-1, 1-{[6-(5-chloro-1H-pyrrolo[2,3-b]pyridin-3-yl)pyrazin-2-yl]oxy}cyclopropane-carboxamide]
1 to 10 nM	CN(C)C(=O)C1(Oc2cncc(-c3c[nH]c4ncc(Cl)cc34)n2)CC1 [Example 6-2, 1-{[6-(5-chloro-1H-pyrrolo[2,3-b]pyridin-3-yl)pyrazin-2-yl]oxy}-N,N-dimethyl-cyclopropanecarboxamide]
1 to 10 nM	C[C@H](Oc1cncc(-c2c[nH]c3ncc(Cl)cc23)n1)C(=O)NCC(F)(F)F [Example 6-4, 2(S) 2-{[6-(5-chloro-1H-pyrrolo[2,3-b]pyridin-3-yl)pyrazin-2-yl]oxy}-N-(2,2,2-trifluoroethyl)propanamide]

— US20130040933A1, “AZAINDOLES AS JANUS KINASE INHIBITORS” (priority 2010, published 2013)
